Measured values reported in patent US20130150363A1, “Method of Treating Cancer Using a cMET and AXL Inhibitor and an ErbB Inhibitor” (GlaxoSmithKline, priority 2008, published 2013).

Assays:
BT474 cells = assay: Cell apoptosis assays (Cell Death ELISA, Caspase-Glo 3/7), BT474; format: cell-based, human; conditions: BT474, presence of HGF (FIG. 4)
Description: Cell apoptosis was measured by both a cell death ELISA method, which measures DNA fragmentation, a hallmark of apoptosis; and Caspase-Glo® 3/7 assay which detects the activity of caspase 3/7, one of the execution enzymes for apoptosis in cells.
The Cell Death ELISA^Plus kit (Roche, Mannheim, Germany) was used according to the manufacturer's instructions. Cells were seeded in 96-well plates at 10,000 per well. After 24 h, cells were dosed and grown for an additional 48 h in RPMI 1640 with 10% FBS in 5% CO2 at 37° C. Cytoplasmic fractions of control and treated cells were transferred into streptavidin-coated 96-well plates and incubated with biotinylated mouse antihistone antibody and peroxidase-conjugated mouse anti-DNA antibody at room temperature for 2 h. Absorbance was determined at 405-490 nm using a Spectra Max Gemini microplate reader (Molecular Devices, Sunnyvale, Calif.).
The Caspase-Glo® 3/7 assay (Promega) is a homogeneous luminescent assay that measures caspase-3 and -7 activities. Cells were seeded in 96-well plates at 5,000 per well. […] Caspase 3/7 activity was detected by adding luminogenic caspase-3/7 substrate, which contains the tetrapeptide sequence DEVD, in a reagent optimized for caspase activity, luciferase activity and cell lysis, according to the manufacturer's instructions.

[1] = test system: phosphorylation of HER2, AXL, AKT, ERK and cyclin D1 in BT474-J4 cells; assay: Western blot analysis, BT474-J4; conditions: BT474-J4, 1 μM each, 4 h
Description: Cells were plated at 250,000 to 500,000 per well in six-well plates (Falcon multiwell, Becton Dickinson, Franklin Lakes, N.J.). The following day, cells were treated with compounds in the growth medium containing 10% FBS. After treatment, cells were washed with cold PBS and lysed in the culture dishes using cell lysis buffer [40 mmol/L Tris-HCl (pH 7.4), 10% glycerol, 50 mmol/L beta-glycerophosphate, 5 mmol/L EGTA, 2 mmol/L EDTA, 0.35 mmol/L vanadate, 10 mmol/L NaF, and 0.3% Triton X-100] containing protease inhibitors (Complete Protease Inhibitor Tablets, Boehringer Mannheim, Indianapolis, Ind.). […] The membrane blots were rinsed with PBS and blocked in Odyssey Blocking buffer for 1 h at RT. Blots were probed with antibodies against specific proteins in blocking buffer plus 0.1% Tween 20 and incubated for 2 h at room temperature. The membranes were washed and incubated with IRDye 680 or IRDye 800 secondary antibodies at RT for 1 h in blocking buffer plus 0.1% Tween 20. The membranes were developed with Odyssey Infrared Imaging System (LI-COR Biosciences, Lincoln, Nebr.).
Cell lysate (50 μg of total protein) or proteins immunoprecipitated with anti-phospho-Tyrosine antibody were loaded in SDS-PAGE gel. The antibody against specific protein was used in the western blot analysis.

[2] = test system: HCC1954 breast carcinoma cells; assay: Cell growth inhibition (CellTiter-Glo), HCC1954; format: cell-based; conditions: Homo sapiens, HCC1954, 72 h, 3 days
From the text: Esophageal carcinoma cell line OE33 was purchased from ECACC European Collection of Cell Cultures (UK). Breast cancer cell line JIMT-1 and gastric carcinoma cell line MKN-45 were purchased from Deutsche Sammlung von Mikroorganismen and Zellkulturen GmbH (Germany); KPL-4, a human breast cancer cell line was kindly provided by Prof. J Kurebayashi (Kawasaki Medical School, Kurashiki, Japan). […] The LICR-LON-HN5 head and neck carcinoma cell line (HN5) was a gift from the Institute of Cancer Research, Surrey, U.K. HN5C12 was developed by single-cell cloning of HN5 followed by exposure to increasing concentrations of lapatinib. […] Cell growth inhibition was determined via CellTiter-Glo cell viability assays. […] ATP levels were determined by adding Cell Titer Glo0 (Promega), incubating for 20 minutes then the luminescent signal was read on the SpectraMax M5 plate with a 0.5 second integration time. Cell growth was calculated relative to vehicle (DMSO) treated control wells. […] CI values were calculated with the interpolated IC50 values and the mutually non-exclusive equation derived by Chou and […](a)+Db/IC50(b)+(Da×Db)/(IC50(a)×IC50(b)) where IC50(a) is the IC50 of the inhibitor A; IC50(b) is the IC50 for the inhibitor B; […] […] EOHSA at each dose was calculated as the minimum difference in average % inhibition between the combination and each monotherapy, from the appropriate ANOVA contrast. […]

IC50 ([2]; breast_HCC1954, +HGF (2 ng/mL)): 5.27 µM | IC50 ([2]; breast_HCC1954, −HGF): 0.8 µM
Structure (SMILES): CS(=O)(=O)CCNCc1ccc(-c2ccc3ncnc(Nc4ccc(OCc5cccc(F)c5)c(Cl)c4)c3c2)o1 [Lapatinib, N-(3-chloro-4-{[(3-fluorophenyl)methyl]oxy}phenyl)-6-[5-({[2-(methylsulfonyl)ethyl]amino}methyl)-2-furanyl]-4-quinazolinamine]
apoptosis induction (DNA fragmentation and caspase 3/7 activation) (BT474 cells): induces apoptosis | phosphorylation of HER2 [1]: inhibits
